Test results as given in US12275731B2, “Azaindole inhibitors of wild-type and mutant forms of LRRK2” (DANA-FARBER CANCER INSTITUTE, INC., priority 2018, dated 2025).

Assays:
Assay in all cases: KinomeScan profiling
Format in all cases: binding
[1] = target: T1, TAOK2 (Homo sapiens, UniProt Q9UL54); conditions: TAOK2, 1 μM; read-out: % control
T1 construct: purchased KinomeScan® (panel service)
T1 sequence (Q9UL54 1-1235): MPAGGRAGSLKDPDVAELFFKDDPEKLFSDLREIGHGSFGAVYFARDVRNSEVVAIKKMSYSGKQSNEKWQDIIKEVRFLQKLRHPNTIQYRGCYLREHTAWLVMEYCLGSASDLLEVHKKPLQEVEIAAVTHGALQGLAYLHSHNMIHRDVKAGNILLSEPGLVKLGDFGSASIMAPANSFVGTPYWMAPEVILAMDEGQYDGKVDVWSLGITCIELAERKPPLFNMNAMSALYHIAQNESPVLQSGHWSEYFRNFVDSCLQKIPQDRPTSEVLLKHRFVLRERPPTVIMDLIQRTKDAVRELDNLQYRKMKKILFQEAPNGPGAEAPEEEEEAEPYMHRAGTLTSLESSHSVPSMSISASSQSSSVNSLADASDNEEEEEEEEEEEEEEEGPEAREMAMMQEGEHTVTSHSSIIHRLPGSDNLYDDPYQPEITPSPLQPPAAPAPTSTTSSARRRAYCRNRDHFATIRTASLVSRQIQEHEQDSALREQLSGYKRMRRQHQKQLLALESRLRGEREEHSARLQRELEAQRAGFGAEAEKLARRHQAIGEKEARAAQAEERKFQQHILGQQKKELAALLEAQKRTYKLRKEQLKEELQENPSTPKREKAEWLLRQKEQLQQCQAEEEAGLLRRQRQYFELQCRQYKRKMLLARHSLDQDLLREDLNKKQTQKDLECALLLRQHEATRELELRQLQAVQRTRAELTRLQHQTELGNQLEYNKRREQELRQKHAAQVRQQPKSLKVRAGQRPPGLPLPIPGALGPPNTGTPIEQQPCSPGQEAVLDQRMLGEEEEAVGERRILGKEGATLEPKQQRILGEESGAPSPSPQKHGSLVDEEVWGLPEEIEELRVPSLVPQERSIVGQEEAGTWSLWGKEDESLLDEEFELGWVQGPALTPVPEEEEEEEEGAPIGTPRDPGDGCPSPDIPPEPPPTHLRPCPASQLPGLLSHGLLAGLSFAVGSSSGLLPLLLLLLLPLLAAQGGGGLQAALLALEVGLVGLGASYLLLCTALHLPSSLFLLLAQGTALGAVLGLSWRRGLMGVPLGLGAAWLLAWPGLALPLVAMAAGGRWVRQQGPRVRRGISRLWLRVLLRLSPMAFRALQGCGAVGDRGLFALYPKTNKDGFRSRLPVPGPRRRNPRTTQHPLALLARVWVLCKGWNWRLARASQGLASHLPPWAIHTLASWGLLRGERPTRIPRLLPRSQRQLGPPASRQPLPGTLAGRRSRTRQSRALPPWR
Method in brief: (§1)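 Selectivity was assessed by binding competition at 1 μM against 468 kinases. Values below 35% of control define an interaction.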

[2] = target: T2, KIT(D816V) (Homo sapiens, UniProt P10721, D816V); conditions: read-out: % control
T2 construct: purchased KinomeScan®
Method in brief: as §1

[3] = target: T3, PIK3CA (Homo sapiens, UniProt P42336); conditions: read-out: % control
T3 construct: purchased KinomeScan® (panel service)
Method in brief: as §1

[4] = target: T4, TTK (Homo sapiens, UniProt P33981); conditions: read-out: % control
T4 sequence (P33981 1-857): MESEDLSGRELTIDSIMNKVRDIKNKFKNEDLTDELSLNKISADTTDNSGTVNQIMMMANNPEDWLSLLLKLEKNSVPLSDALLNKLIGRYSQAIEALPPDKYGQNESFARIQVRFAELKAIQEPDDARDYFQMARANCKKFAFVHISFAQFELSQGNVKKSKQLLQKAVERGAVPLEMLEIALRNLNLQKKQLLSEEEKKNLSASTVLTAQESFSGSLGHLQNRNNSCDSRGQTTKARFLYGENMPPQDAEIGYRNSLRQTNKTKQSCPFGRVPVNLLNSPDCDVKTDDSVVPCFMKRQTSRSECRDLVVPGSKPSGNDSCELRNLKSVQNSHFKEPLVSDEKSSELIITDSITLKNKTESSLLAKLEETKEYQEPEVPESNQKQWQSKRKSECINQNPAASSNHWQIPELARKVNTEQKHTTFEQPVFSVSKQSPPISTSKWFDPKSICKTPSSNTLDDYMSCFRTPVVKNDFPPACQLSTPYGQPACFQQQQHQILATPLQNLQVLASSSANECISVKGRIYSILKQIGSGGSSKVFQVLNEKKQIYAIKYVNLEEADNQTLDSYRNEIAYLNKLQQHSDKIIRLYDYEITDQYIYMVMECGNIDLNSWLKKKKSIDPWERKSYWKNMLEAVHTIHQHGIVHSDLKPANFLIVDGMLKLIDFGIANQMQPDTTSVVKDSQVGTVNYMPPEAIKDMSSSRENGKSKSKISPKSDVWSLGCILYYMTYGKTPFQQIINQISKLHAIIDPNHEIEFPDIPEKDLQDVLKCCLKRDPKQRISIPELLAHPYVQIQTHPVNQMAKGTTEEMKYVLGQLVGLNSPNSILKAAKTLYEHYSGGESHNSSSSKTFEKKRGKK
Method in brief: as §1

[5] = target: T5, AURKA (Homo sapiens, UniProt O14965); conditions: read-out: % control
T5 construct: purchased KinomeScan®
T5 sequence (O14965 1-403): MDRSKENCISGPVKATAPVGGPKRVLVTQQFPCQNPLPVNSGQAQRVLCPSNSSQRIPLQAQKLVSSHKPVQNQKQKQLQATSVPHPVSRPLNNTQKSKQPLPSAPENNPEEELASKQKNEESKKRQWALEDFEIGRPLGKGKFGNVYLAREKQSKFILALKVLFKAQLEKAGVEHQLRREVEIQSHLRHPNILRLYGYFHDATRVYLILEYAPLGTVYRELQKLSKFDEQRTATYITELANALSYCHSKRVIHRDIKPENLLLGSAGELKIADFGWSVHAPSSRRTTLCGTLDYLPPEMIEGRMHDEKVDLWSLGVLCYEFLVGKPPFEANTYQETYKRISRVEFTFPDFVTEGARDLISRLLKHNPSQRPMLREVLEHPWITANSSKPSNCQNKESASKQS
Method in brief: as §1

[6] = target: T6, JAK2(JH1domain-catalytic) (Homo sapiens, UniProt O60674); conditions: read-out: % control
T6 construct: Janus kinase 2 (JAK2)(JH1domain-catalytic); purchased KinomeScan®
Method in brief: as §1

T2 sequence (P10721 26-976 D816V): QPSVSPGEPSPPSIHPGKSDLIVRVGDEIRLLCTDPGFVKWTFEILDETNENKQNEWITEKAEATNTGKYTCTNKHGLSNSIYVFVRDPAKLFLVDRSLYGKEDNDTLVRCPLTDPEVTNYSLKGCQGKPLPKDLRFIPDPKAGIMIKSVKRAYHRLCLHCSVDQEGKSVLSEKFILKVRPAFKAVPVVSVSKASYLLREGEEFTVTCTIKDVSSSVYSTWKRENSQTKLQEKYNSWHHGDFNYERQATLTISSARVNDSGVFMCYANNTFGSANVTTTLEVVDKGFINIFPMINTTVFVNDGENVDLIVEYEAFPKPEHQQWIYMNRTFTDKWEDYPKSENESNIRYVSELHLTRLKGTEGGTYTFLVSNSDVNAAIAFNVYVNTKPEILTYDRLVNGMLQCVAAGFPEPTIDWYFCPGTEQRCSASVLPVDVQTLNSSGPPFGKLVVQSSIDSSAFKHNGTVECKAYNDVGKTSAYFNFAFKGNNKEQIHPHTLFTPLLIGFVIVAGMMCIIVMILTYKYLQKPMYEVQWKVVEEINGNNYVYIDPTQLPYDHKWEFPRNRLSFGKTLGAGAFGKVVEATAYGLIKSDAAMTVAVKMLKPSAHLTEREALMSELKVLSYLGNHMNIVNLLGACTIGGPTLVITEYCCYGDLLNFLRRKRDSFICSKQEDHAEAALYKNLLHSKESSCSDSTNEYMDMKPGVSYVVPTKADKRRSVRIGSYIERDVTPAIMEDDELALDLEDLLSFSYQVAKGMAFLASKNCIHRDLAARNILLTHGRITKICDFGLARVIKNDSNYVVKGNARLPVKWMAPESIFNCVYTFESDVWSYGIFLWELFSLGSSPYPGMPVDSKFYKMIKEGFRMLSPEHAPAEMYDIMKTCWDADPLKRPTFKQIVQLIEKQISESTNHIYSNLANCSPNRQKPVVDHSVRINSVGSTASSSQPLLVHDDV
T3 sequence (P42336 whole entry): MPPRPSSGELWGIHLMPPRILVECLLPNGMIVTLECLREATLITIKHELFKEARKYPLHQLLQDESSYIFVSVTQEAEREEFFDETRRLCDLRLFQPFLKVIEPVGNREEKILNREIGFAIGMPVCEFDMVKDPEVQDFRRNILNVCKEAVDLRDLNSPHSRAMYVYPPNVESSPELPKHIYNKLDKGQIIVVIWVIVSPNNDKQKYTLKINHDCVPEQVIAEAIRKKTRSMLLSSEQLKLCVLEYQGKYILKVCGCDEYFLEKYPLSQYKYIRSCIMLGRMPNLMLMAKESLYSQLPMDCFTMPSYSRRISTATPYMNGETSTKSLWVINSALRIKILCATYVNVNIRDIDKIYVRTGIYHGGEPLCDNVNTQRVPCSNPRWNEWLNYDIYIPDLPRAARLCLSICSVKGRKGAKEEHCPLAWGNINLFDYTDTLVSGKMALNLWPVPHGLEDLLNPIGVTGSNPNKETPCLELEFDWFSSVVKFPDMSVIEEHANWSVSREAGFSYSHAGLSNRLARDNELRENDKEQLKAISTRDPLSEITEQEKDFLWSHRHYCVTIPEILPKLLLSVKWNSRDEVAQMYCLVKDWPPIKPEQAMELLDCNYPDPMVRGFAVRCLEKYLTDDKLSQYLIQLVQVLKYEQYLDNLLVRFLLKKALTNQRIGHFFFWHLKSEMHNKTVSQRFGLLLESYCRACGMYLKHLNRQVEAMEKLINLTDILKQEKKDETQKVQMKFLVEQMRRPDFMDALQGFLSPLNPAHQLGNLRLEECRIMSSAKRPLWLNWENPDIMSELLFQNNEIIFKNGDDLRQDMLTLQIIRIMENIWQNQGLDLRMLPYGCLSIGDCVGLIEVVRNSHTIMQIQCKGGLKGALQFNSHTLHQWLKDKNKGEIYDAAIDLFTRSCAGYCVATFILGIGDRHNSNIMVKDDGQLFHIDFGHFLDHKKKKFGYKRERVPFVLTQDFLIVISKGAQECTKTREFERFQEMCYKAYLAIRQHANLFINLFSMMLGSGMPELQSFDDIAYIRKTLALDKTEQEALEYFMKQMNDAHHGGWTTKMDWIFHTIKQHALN
T6 sequence (O60674 849-1124 limits assumed): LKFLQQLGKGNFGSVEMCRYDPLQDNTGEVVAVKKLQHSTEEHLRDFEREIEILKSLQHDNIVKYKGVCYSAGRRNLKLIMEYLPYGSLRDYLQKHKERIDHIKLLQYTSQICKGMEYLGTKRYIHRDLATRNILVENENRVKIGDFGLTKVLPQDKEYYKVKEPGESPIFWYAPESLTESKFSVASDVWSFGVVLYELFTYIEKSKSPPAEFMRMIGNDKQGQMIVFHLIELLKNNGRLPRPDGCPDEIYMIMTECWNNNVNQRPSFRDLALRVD

Compound	remaining binding at 1 µM [1] [%]	remaining binding at 1 µM [2] [%]	remaining binding at 1 µM [3] [%]	remaining binding at 1 µM [4] [%]	remaining binding at 1 µM [5] [%]	remaining binding at 1 µM [6] [%]
CNc1c(-c2cnn([C@H]3CCN(C(C)=O)C[C@@H]3F)c2)cnc2[nH]cc(Cl)c12 [Compound 77, 1-((3S,4S)-4-(4-(3-chloro-4-(methylamino)-1H-pyrrolo[2,3-b]pyridin-5-yl)-1H-pyrazol-1-yl)-3-fluoropiperidin-1-yl)ethan-1-one]	69	46	100	34	35	7.9
O=C(c1ccc(-c2cnc3[nH]cc(Cl)c3c2NC2CCCC2)cc1)N1CCC(N2CCOCC2)CC1 [Compound 101, (4-(3-chloro-4-(cyclopentylamino)-1H-pyrrolo[2,3-b]pyridin-5-yl)phenyl)(4-morpholinopiperidin-1-yl)methanone]	81	95	99	54	82	100
CNc1c(-c2ccc(C(=O)N3CCC(N4CCOCC4)CC3)cc2)cnc2[nH]cc(Cl)c12 [Compound 96, (4-(3-chloro-4-(methylamino)-1H-pyrrolo[2,3-b]pyridin-5-yl)phenyl)(4-morpholinopiperidin-1-yl)methanone]	69	86	100	3.6	36	29
